Laboratory results from ChEMBL document CHEMBL4342436, “Artemisia: a promising plant for the treatment of cancer” (Bioorg Med Chem, 2020).
pIC50: −log10 of the molar value. Values after ≈ are worked out from the molar mass of the structure shown.

Legend:
[1] = Antioxidant activity assessed as ONOO scavenging activity; type: functional
[2] = system: HeLa; experiment: Cytotoxicity against human HeLa cells assessed as reduction in cell viability after 24 hrs by MTT assay; type: functional, cell-based
[3] = Cytotoxicity against human YD-10B cells assessed as reduction in cell viability after 48 hr by MTT asssay; type: functional, cell-based
[4] = system: HeLa; experiment: Cytotoxicity against human HeLa cells assessed as reduction in cell viability incubated for 48 hrs by MTT assay; type: functional, cell-based
[5] = system: A549; experiment: Cytotoxicity against human A549 cells by SRB assay; type: functional, cell-based
[6] = system: SK-OV-3; experiment: Cytotoxicity against human SKOV3 cells by SRB assay; type: functional, cell-based
[7] = system: HCT-15; experiment: Cytotoxicity against human HCT15 cells by SRB assay; type: functional, cell-based
[8] = system: SK-MEL-2; experiment: Cytotoxicity against human SK-MEL-2 cells by SRB assay; type: functional, cell-based
[9] = system: XF498; experiment: Cytotoxicity against human XF498 cells by SRB assay; type: functional, cell-based
[10] = system: MCF7; experiment: Cytotoxicity against human MCF7 cells assessed as reduction in cell viability incubated for 48 hrs by MTT assay; type: functional, cell-based; conditions: MCF7, 48 h
[11] = system: LNCaP; experiment: Cytotoxicity against human LNCAP cells; type: functional, cell-based
[12] = system: HepG2; experiment: Cytotoxicity against human HepG2 cells; type: functional, cell-based
[13] = system: SK-MEL-2; experiment: Cytotoxicity against human SK-MEL-2 cells; type: functional, cell-based
[14] = system: MCF7; experiment: Cytotoxicity against human MCF7 cells; type: functional, cell-based
[15] = system: KB; experiment: Cytotoxicity against human KB cells; type: functional, cell-based
[16] = system: A-431; experiment: Cytotoxicity against human A431 cells after 72 hrs by MTT assay; type: functional, cell-based; conditions: A-431, 72 h
[17] = system: MCF7; experiment: Cytotoxicity against human MCF7 cells after 72 hrs by MTT assay; type: functional, cell-based; conditions: MCF7, 72 h
[18] = system: A2780; experiment: Cytotoxicity against human A2780 cells after 72 hrs by MTT assay; type: functional, cell-based; conditions: A2780, 72 h
[19] = system: HeLa; experiment: Cytotoxicity against human HeLa cells after 72 hrs by MTT assay; type: functional, cell-based
[20] = Cytotoxicity against mouse S17 cells after 72 hrs by MTT assay; type: functional, cell-based; conditions: S17, 72 h
[21] = system: SH-SY5Y; experiment: Cytotoxicity against human SH-SY5Y cells after 72 hrs by MTT assay; type: functional, cell-based
[22] = system: HepG2; experiment: Cytotoxicity against human HepG2 cells after 72 hrs by MTT assay; type: functional, cell-based; conditions: HepG2, 72 h
[23] = system: HeLa; experiment: Cytotoxicity against human HeLa cells after 48 hrs by MTT assay; type: functional, cell-based
[24] = system: U-937; experiment: Cytotoxicity against human U937 cells after 48 hrs by MTT assay; type: functional, cell-based; conditions: U-937, 48 h
[25] = system: A549; experiment: Cytotoxicity against human A549 cells after 48 hrs by MTT assay; type: functional, cell-based; conditions: A549, 48 h
[26] = system: A549; experiment: Cytotoxicity against human A549 cells by MTT assay; type: functional, cell-based
[27] = system: Bel-7402; experiment: Cytotoxicity against human Bel7402 cells by MTT assay; type: functional, cell-based
[28] = system: HT-29; experiment: Cytotoxicity against human HT-29 cells assessed as reduction in cell viability after 48 hrs by MTT assay; type: functional, cell-based; conditions: HT-29, 48 h
[29] = system: A549; experiment: Cytotoxicity against human A549 cells assessed as reduction in cell viability after 48 hrs by MTT assay; type: functional, cell-based; conditions: A549, 48 h
[30] = system: L1210; experiment: Cytotoxicity against mouse L1210 cells assessed as reduction in cell viability after 48 hrs by MTT assay; type: functional, cell-based; conditions: L1210, 48 h
[31] = system: P388; experiment: Cytotoxicity against mouse P388 cells assessed as reduction in cell viability after 48 hrs by MTT assay; type: functional, cell-based; conditions: P388, 48 h
[32] = system: HL-60; experiment: Antiproliferative activity against human HL60 cells assessed as reduction in cell viability after 3 days by XTT assay; type: functional, cell-based; conditions: HL-60, 72 h

`COc1cc2ccc(=O)oc2cc1O` [SCOPOLETIN] gave a pIC50 [1] of 5.99.

`C=C1C(=O)O[C@@H]2C[C@@]3(C)CCCC(=C)[C@@H]3C[C@H]12` [ISOALANTOLACTONE] showed a pIC50 [2] of 5.09.

Molecule `CC(=O)O[C@H]1C(=O)[C@@]2(C)[C@H]([C@H](OC(=O)c3ccccc3)[C@]3(O)C[C@H](OC(=O)[C@H](O)[C@@H](NC(=O)c4ccccc4)c4ccccc4)C(C)=C1C3(C)C)[C@]1(OC(C)=O)CO[C@@H]1C[C@@H]2O` [PACLITAXEL] has a pIC50 [3] of 4.88.

`COc1cc(O)c2c(=O)cc(-c3ccc(O)cc3)oc2c1` [GENKWANIN] showed a pIC50 [4] of 4.20 to 5.09, an IC50 [5] of 0.4 to 26.8 µg/mL (≈ 1.41 to 94.3 µM) and an IC50 [6] of 0.4 to 26.8 µg/mL (≈ 1.41 to 94.3 µM). The pIC50 [1] was 6.00, the IC50 [7] was 0.4 to 26.8 µg/mL (≈ 1.41 to 94.3 µM) and the IC50 [8] was 0.4 to 26.8 µg/mL (≈ 1.41 to 94.3 µM). For the same molecule, the IC50 [9] was 0.4 to 26.8 µg/mL (≈ 1.41 to 94.3 µM) and the pIC50 [10] was 4.04 to 4.99.

For `COc1cc(-c2oc3cc(O)cc(O)c3c(=O)c2OC)cc(O)c1OC`, the pIC50 [4] was 4.20 to 5.09 and the pIC50 [10] was 4.04 to 4.99.

For `COc1cc(-c2oc3cc(O)cc(O)c3c(=O)c2O)ccc1O` [ISORHAMNETIN], the pIC50 [4] was 4.20 to 5.09 and the pIC50 [10] was 4.04 to 4.99.

Work on `C=C1C(=O)O[C@@H]2C[C@@]3(C)C=CC(=O)C(C)=C3C[C@H]12` yielded an IC50 [5] of 0.4 to 26.8 µg/mL (≈ 1.64 to 110 µM), an IC50 [6] of 0.4 to 26.8 µg/mL (≈ 1.64 to 110 µM) and an IC50 [7] of 0.4 to 26.8 µg/mL (≈ 1.64 to 110 µM). The IC50 [8] was 0.4 to 26.8 µg/mL (≈ 1.64 to 110 µM) and the IC50 [9] was 0.4 to 26.8 µg/mL (≈ 1.64 to 110 µM).

Molecule `COc1ccc(-c2cc(=O)c3c(O)c(OC)c(OC)cc3o2)cc1OC` has a pIC50 [4] of 4.20 to 5.09 and a pIC50 [10] of 4.04 to 4.99.

In the case of `C=C1C(=O)O[C@H]2[C@H]1CC[C@@](C)(O)C1=C[C@@H](O)[C@@](C)(O)[C@@H]12`, the pIC50 [11] was < 4.00, the pIC50 [12] was < 4.00 and the pIC50 [13] was < 4.00. The pIC50 [14] was < 4.00 and the pIC50 [15] was < 4.00.

`COc1ccc(-c2cc(=O)c3c(O)cc(O)cc3o2)cc1` [ACACETIN] showed an IC50 [5] of 0.4 to 26.8 µg/mL (≈ 1.41 to 94.3 µM), an IC50 [6] of 0.4 to 26.8 µg/mL (≈ 1.41 to 94.3 µM) and an IC50 [7] of 0.4 to 26.8 µg/mL (≈ 1.41 to 94.3 µM). It also gave an IC50 [8] of 0.4 to 26.8 µg/mL (≈ 1.41 to 94.3 µM) and an IC50 [9] of 0.4 to 26.8 µg/mL (≈ 1.41 to 94.3 µM).

`COc1cc(-c2cc(=O)c3c(O)c(OC)c(OC)cc3o2)ccc1O` [CIRSILENEOL] gave an IC50 [16] of 33 to 75 µg/mL (≈ 95.8 to 218 µM), an IC50 [17] of 33 to 75 µg/mL (≈ 95.8 to 218 µM) and an IC50 [18] of 33 to 75 µg/mL (≈ 95.8 to 218 µM). The IC50 [19] was 33 to 75 µg/mL (≈ 95.8 to 218 µM).

`CC(C)=CCC[C@H](C)[C@H]1C[C@H]2OO[C@@H]1C=C2C` showed an IC50 [5] of 0.2 to 5.43 µg/mL (≈ 0.846 to 23 µM), an IC50 [6] of 0.2 to 5.43 µg/mL (≈ 0.846 to 23 µM) and an IC50 [7] of 0.2 to 5.43 µg/mL (≈ 0.846 to 23 µM). The IC50 [8] was 0.2 to 5.43 µg/mL (≈ 0.846 to 23 µM) and the IC50 [9] was 0.2 to 5.43 µg/mL (≈ 0.846 to 23 µM).

`COc1ccc(-c2oc3cc(OC)c(OC)c(O)c3c(=O)c2OC)cc1OC` [ARTEMETIN] showed a pIC50 [20] of 3.63 to 3.64, a pIC50 [21] of 3.63 to 3.64 and a pIC50 [22] of 3.63 to 3.64.

In the case of `C=C1C(=O)O[C@H]2[C@H]1[C@@H](OC(=O)/C(C)=C\C)CC(C)=C1C[C@@H]3O[C@]3(C)[C@@H]12`, the IC50 [23] was 16 to 43.5 µg/mL (≈ 46.5 to 126 µM), the IC50 [24] was 16 to 43.5 µg/mL (≈ 46.5 to 126 µM) and the IC50 [25] was 16 to 43.5 µg/mL (≈ 46.5 to 126 µM).

Molecule `C=C1C(=O)O[C@H]2[C@H]1[C@@H](OC(C)=O)C[C@@](C)(O)[C@@]13O[C@@H]1[C@@H](Cl)[C@](C)(O)[C@H]23` has a pIC50 [26] of 5.22 to 5.48 and a pIC50 [27] of 5.22 to 5.48.

For `C[C@H]1[C@@H](O[C@H](C#N)c2ccc(Br)cc2)O[C@@H]2O[C@@]3(C)CC[C@H]4[C@H](C)CC[C@@H]1[C@@]24OO3`, the pIC50 [28] was 6.31 to 8.00, the pIC50 [29] was 6.31 to 8.00 and the pIC50 [30] was 6.31 to 8.00. For the same molecule, the pIC50 [31] was 6.31 to 8.00.

With `C=C1C(=O)O[C@H](C2=C(C)[C@@H](OC)CC2=O)[C@H]1CCC(C)=O` the IC50 [16] was 33 to 75 µg/mL (≈ 113 to 257 µM), the IC50 [17] was 33 to 75 µg/mL (≈ 113 to 257 µM) and the IC50 [18] was 33 to 75 µg/mL (≈ 113 to 257 µM). It also gave an IC50 [19] of 33 to 75 µg/mL (≈ 113 to 257 µM).

For `COc1cc2ccc(=O)oc2cc1OC` [SCOPARONE], the IC50 [32] was 1.1 to 40.7 µg/mL (≈ 5.33 to 197 µM).

`c1cc2c(cc1[C@H]1OC[C@H]3[C@@H]1CO[C@@H]3c1ccc3c(c1)OCO3)OCO2` [SESAMIN] gave a pIC50 [20] of 3.63 to 3.64, a pIC50 [21] of 3.63 to 3.64 and a pIC50 [22] of 3.63 to 3.64.
